Source: patent US10167282B2, “1-(5-tert-butyl-2-aryl-pyrazol-3-yl)-3-[2-fluoro-4-[(3-oxo-4H-pyrido [2, 3-B]pyrazin- 8-yl)oxy]phenyl]urea derivatives as RAF inhibitors for the treatment of cancer” (CANCER RESEARCH TECHNOLOGY LIMITED, priority 2013, dated 2019)
Read-outs that look alike come from different tables or passages of the source.

Tests used:
[1] = molecular target: V600EBRAF; assay: DELFIA kinase assay (BRAF V600E Kinase Assay); format: biochemical, human; conditions: for IC50: 100 μM ATP
Method: Compounds were assessed in a kinase assay performed according to the following protocol.
^V600EBRAF was generated by infection of SF9 insect cells cultured in SF-900 II medium (Invitrogen, Paisley, Scotland) with a baculovirus containing full-length human BRAF with an N-terminal histidine tag and purified by nickel-agarose affinity chromatography.
Full-length rabbit MEK1 protein was expressed with a GST tag at the N-terminus and a C-terminal histidine tag in Escherichia coli JM109 bacteria and purified by nickel-agarose affinity chromatography.
Combine 4950 μL of DKB and 50 μL of 2.5 mg/mL GST-MEK stock obtained as described above (to give […] of MEK per 40 μL). Then add 22.5 μL of BRAF stock obtained as described above to give ˜0.2 μL of BRAF per 40 μL.
100 mM ATP stock in distilled water, dilute to 500 μM to give 100 μM final concentration in assay.
3. Plate out 40 μL of DKB1 for all inhibitors (test compounds), DMSO control, and optionally other control compounds.
5. Add inhibitors (test compounds) at 0.5 μL per well according to desired plate layout.
8. Pre-incubate with test compounds for 10 minutes at room temperature with shaking.
9. Add 10 μL of 500 μM ATP stock, in DKB, to give 100 μM assay concentration.
10. Seal plates with TopSeal and incubate at room temperature with shaking for 45 minutes.
12. Add 50 μL per well of antibody mix and incubate for 1 hour at room temperature with shaking.
14. Add 100 μL DELFIA enhancement solution per well, cover in foil, and incubate at room temperature for 30 minutes with shaking.
15. Read on Victor plate reader (Perkin-Elmer, Turku, Finland) using Europium protocol.
Values for the blank (Empty Vector) are subtracted from all values. The DMSO controls are set as 100% activity and assay points (the response) are calculated as a percentage of the DMSO control. Data are plotted using Graphpad Prism software and a non-linear regression line is calculated using a variable slope sigmoidal dose-response equation: Y=Bottom+[Top−Bottom]/[1+10^((Log EC50−X)*HillSlope)] where X is the logarithm of concentration and Y is the response. The IC50 generated by this procedure is the concentration of the drug that produces a percentage control fluorescence value midway between the saturation, and zero-effect plateaus. Three independent assays are usually performed and the mean IC50 is reported.

[2] = test system: hERG; format: cell-based, human; conditions: read-out: hERG Inhibition IC50
Method: Studies were conducted at Cyprotex Discovery in Cheshire, UK according to the contractor's protocol. The studies were performed on an IonWorks™ HT instrument (Molecular Devices Corporation), which automatically performs electrophysiology measurements in […] single cells simultaneously in a specialised 384-well plate (PatchPlate™). The cells used were Chinese hamster ovary (CHO) cells stably transfected with hERG (cell-line obtained from Cytomyx, UK). A single-cell suspension was prepared in extracellular solution (Dulbecco's phosphate buffered saline with calcium and magnesium pH 7-7.2) and aliquots added automatically to each well of a PatchPlate™. The cells were then positioned over a small hole at the bottom of each well by applying a vacuum beneath the plate to form an electrical seal. The vacuum was applied through a single compartment common to all wells which was filled with intracellular solution (buffered to pH 7.2 with HEPES). The resistance of each seal was measured via a common ground-electrode in the intracellular compartment and individual electrodes placed into each of the upper wells.
Electrical access to the cell was then achieved by circulating a perforating agent, amphotericin, underneath the PatchPlate™ and then measuring the pre-compound hERG current. An electrode was positioned in the extracellular compartment and a holding potential of −80 mV applied for 15 seconds. The hERG channels were then activated by applying a depolarising step to +40 mV for 5 seconds and then clamped at −50 mV for 4 seconds to elicit the hERG tail current, before returning to −80 mV for 0.3 seconds. […]. Quinidine, an established hERG inhibitor, was included as an experimental control. […]. The test compound was left in contact with the cells for 300 seconds before recording currents using the same voltage-step protocol as in the pre-compound scan. Each concentration was tested in 4 replicate wells.
Post-compound currents were expressed as a percentage of pre-compound currents and plotted against concentration for each compound. Where concentration-dependent inhibition was observed, the data were fitted to the following equation: y=(ymax−ymin)/(1+(x/x50)^s)+ymin.
y=(post-compound current/pre-compound current)×100;
x50=concentration required to inhibit current by 50% (IC50); and […]

[3] = molecular target: EGFR; assay: Z'-LYTE biochemical kinase assay; conditions: ATP 100 μM
Method: (§1) Activity Against Other Targets
(§2) Studies were conducted at Life Technologies in Paisley according to the contractor's protocol. TBAP-01 was dissolved in DMSO and assayed at final concentrations ranging from 10 μM to 0.5 nM in 1% DMSO, in the presence of an ATP concentration of 100 μM. IC50 values for test compounds were determined using the Z'-LYTE® biochemical assay employing a fluorescence-based, coupled-enzyme format based on the differential sensitivity of phosphorylated and non-phosphorylated peptides to proteolytic cleavage.

[4] = molecular target: MET; assay: Z'-LYTE biochemical kinase assay; conditions: ATP 100 μM
Method: as §1, §2

[5] = molecular target: p38α; assay: Z'-LYTE biochemical kinase assay; conditions: ATP 100 μM
Method: as §1, §2

[6] = molecular target: Src; assay: Z'-LYTE biochemical kinase assay; conditions: ATP 100 μM
Method: as §1, §2

[7] = molecular target: p38γ; assay: Z'-LYTE biochemical kinase assay; conditions: ATP 100 μM
Method: as §1, §2

[8] = molecular target: PDGFRβ; assay: Z'-LYTE biochemical kinase assay; conditions: ATP 100 μM
Method: as §1, §2

[9] = molecular target: CRAF; assay: Z'-LYTE biochemical kinase assay; conditions: ATP 100 μM
Method: as §1, §2

[10] = molecular target: PDGFRα; assay: Z'-LYTE biochemical kinase assay; conditions: ATP 100 μM
Method: as §1, §2

[11] = molecular target: Lck; assay: Z'-LYTE biochemical kinase assay; conditions: ATP 100 μM
Method: as §1, §2

[12] = molecular target: KDR; assay: Z'-LYTE biochemical kinase assay; conditions: ATP 100 μM
Method: as §1, §2

[13] = molecular target: FGFR1; assay: Z'-LYTE biochemical kinase assay; conditions: ATP 100 μM
Method: as §1, §2

[14] = test system: YES1; assay: Kinase profiling, radioactive (33P-ATP) filter-binding assay; format: biochemical; conditions: at 1 μM
Method: as §1
(§3) Additional studies were conducted at The International Centre for Kinase Profiling in Dundee according to the contractor's protocol. TBAP-01 was dissolved in DMSO and assayed at a final concentration of 1 μM in 2% DMSO against 131 kinases. The assays were carried out using a radioactive (^33P-ATP) filter-binding assay.

[15] = test system: TrkA; assay: as above; format: biochemical; conditions: at 1 μM
Method: as §1, §3

[16] = test system: TAK1; assay: as above; format: biochemical; conditions: at 1 μM
Method: as §1, §3

[17] = test system: ABL; assay: as above; format: biochemical; conditions: at 1 μM
Method: as §1, §3

[18] = test system: Tie-2; assay: as above; format: biochemical; conditions: at 1 μM
Method: as §1, §3

[19] = test system: IGF1Rβ; assay: as above; format: biochemical; conditions: not stated whether inhibition or remaining activity
Method: as §1, §3

[20] = test system: MINK1; assay: as above; format: biochemical; conditions: at 1 μM
Method: as §1, §3

[21] = test system: TESK1; assay: as above; format: biochemical; conditions: at 1 μM
Method: as §1, §3

[22] = test system: DDR2; assay: as above; format: biochemical; conditions: at 1 μM
Method: as §1, §3

[23] = test system: mutant BRAF WM266.4 cells; assay: Cell based phospho-ERK assay; conditions: Homo sapiens, WM 266-4, 6 h, read-out: Cell-Based Phospho-ERK Assay IC50
Method: Cell Based Phospho-ERK Assay (Mutant BRAF WM266.4 Cells)
Compounds were assessed using a cell-based assay which was performed according to the following protocol.
Plate out 16,000 mutant BRAF WM266.4 cells/well in 99 μL medium in a 96-well plate.
Add 1 μL test compound to the cells (total 1 μL solution).
Incubate the cells with test compound for 6 hours at 37° C.
Read Europium Time Resolved Fluorescence in Victor2 plate reader (Perkin-Elmer, Turku, Finland).
Note that Europium counts are normalised for protein levels by dividing counts by absorbance.
Values for the blank (no cells) are subtracted from all values. The DMSO controls are set as 100% activity and assay points (the response) are calculated as a percentage of the DMSO control. Data are plotted using Graphpad Prism software and a non-linear regression line is calculated using a variable slope sigmoidal dose-response equation: Y=Bottom+[Top−Bottom]/[1+10^((Log EC50−X)*HillSlope)] where X is the logarithm of concentration and Y is the response). The IC50 generated by this procedure is the concentration of the drug that produces a percentage control fluorescence value midway between the saturation, and zero-effect plateaus. Three independent assays are usually performed and the mean IC50 is reported.

[24] = test system: mice with collagen-induced arthritis; conditions: cited from earlier work
[25] = CHO cells stably transfected with hERG, tail current

Work on `Cn1c(=O)[nH]c2nccc(Oc3ccc(NC(=O)Nc4cc(C(C)(C)C)nn4-c4cccc(F)c4)c(F)c3)c21` [AA-04, reference compound] yielded an IC50 [1] of 650 nM.
`Cc1cccc(-n2nc(C(C)(C)C)cc2NC(=O)Nc2ccc(Oc3ccnc4[nH]c(=O)cnc34)cc2F)c1` [TBAP-02] showed an IC50 [1] of 99 nM and an IC50 [2] of 65000 nM.
Work on `CC(C)(C)c1cc(NC(=O)Nc2ccc(Oc3ccnc4[nH]c(=O)cnc34)cc2F)n(-c2ccccc2)n1` [AA-019, reference compound] yielded an IC50 [1] of 55 nM and an IC50 [2, 25] of over 100000 nM.
In the case of `COc1ccc(-n2nc(C(C)(C)C)cc2NC(=O)Nc2ccc(Oc3ccnc4[nH]c(=O)cnc34)cc2F)cn1` [AA-062, reference compound], the IC50 [1] is reported as 79 nM and the IC50 [2, 25] is reported as over 100000 nM.
For `CC(C)(C)c1cc(NC(=O)Nc2ccc(Oc3ccnc4[nH]c(=O)cnc34)cc2F)n(-c2cccc(F)c2)n1` [TBAP-01], the “fold more potent than Compound AA-04 on the BRAF kinase assay” value [1] was 10 fold, the IC50 [1] was 62 nM and the “fold more potent than Compound AA-084 on the BRAF kinase assay” value ([1]; vs AA-084) was 11 fold. It also gave an IC50 [2, 25] of over 100000 nM, an IC50 [3] of 1900 nM and an IC50 [4] of 1400 nM. It also gave an IC50 [5] of 470 nM, an IC50 [6] of 27 nM and an IC50 [7] of 220 nM. The IC50 [8] was 740 nM, the IC50 [9] was 33 nM and the IC50 [10] was 800 nM. For the same compound, the IC50 [11] was 19 nM, the IC50 [12] was 120 nM and the IC50 [13] was 470 nM. The YES1 activity remaining [14] was 6% activity remaining at 1 μM, the TrkA activity remaining [15] was 6% activity remaining at 1 μM and the TAK1 activity remaining [16] was 6% activity remaining at 1 μM. For the same compound, the ABL activity remaining [17] was 4% activity remaining at 1 μM, the Tie-2 activity remaining [18] was 3% activity remaining at 1 μM and the “IGF1Rβ % @ 1 μM” value [19] was 78% @ 1. The MINK1 activity remaining [20] was 4% activity remaining at 1 μM, the TESK1 activity remaining [21] was 5% activity remaining at 1 μM and the DDR2 activity remaining [22] was 3% activity remaining at 1 μM.
Work on `CC(C)(C)c1cc(NC(=O)Nc2ccc(Oc3ccnc4[nH]c(=O)cnc34)cc2F)n(-c2ccnc(O)c2)n1` [TBAP-05, 1-(3-tert-butyl-1-(2-oxo-1,2-dihydropyridin-4-yl)-1H-pyrazol-5-yl)-3-(2-fluoro-4-(3-oxo-3,4-dihydropyrido[3,2-b]pyrazin-8-yloxy)phenyl)urea] yielded an IC50 [1] of 390 nM and an IC50 [23] of 450 nM.
Compound `Cc1ccc(-n2nc(C(C)(C)C)cc2NC(=O)Nc2ccc(Oc3ccnc4[nH]c(=O)cnc34)cc2F)cc1` [AA-018, reference compound] has an IC50 [1] of 64 nM and an IC50 [2, 25] of over 100000 nM.
Work on `COc1cccc(-n2nc(C(C)(C)C)cc2NC(=O)Nc2ccc(Oc3ccnc4[nH]c(=O)cnc34)cc2F)c1` [TBAP-04, 1-(3-tert-butyl-1-(3-methoxyphenyl)-1H-pyrazol-5-yl)-3-(2-fluoro-4-(3-oxo-3,4-dihydropyrido[3,2-b]pyrazin-8-yloxy)phenyl)urea] yielded an IC50 [1] of 47 nM and an IC50 [2, 25] of over 100000 nM.
For `Clc1ccc(Nc2nnc(Cc3ccncc3)c3ccccc23)cc1` [PTK787/ZK222584], the “inhibition of knee swelling” value [24] is listed as 40% and the “inhibition of severity scores” value [24] is listed as 51%.
In the case of `CC(C)(C)c1cc(NC(=O)Nc2ccc(Oc3ccnc4[nH]c(=O)cnc34)cc2F)n(-c2cccc(C(F)(F)F)c2)n1` [TBAP-03], the IC50 [1] is reported as 130 nM and the IC50 [2, 25] is reported as over 100000 nM.
`Cc1ccc(-n2nc(C(C)(C)C)cc2NC(=O)Nc2ccc(Oc3ccnc4[nH]c(=O)cnc34)cc2F)cn1` [AA-084, reference compound] showed an IC50 [1] of 710 nM and an IC50 [2, 25] of 53000 nM.
